PMC10818746, “Inhibition of CYP1A1 Alleviates Colchicine-Induced Hepatotoxicity” (Toxins, 2024)

Assays:
Format in all cases: in vitro ADME
Conditions in all cases: colchicine 25 µM, NADPH 1 mM, CYP 2 pmol/mL, PBS pH 7.4; mean ± SD (n = 2)
CYP1A1 = target: T1, CYP1A1 (Homo sapiens, UniProt P04798); experiment: Colchicine metabolism by cDNA-expressed recombinant CYP1A1
T1 construct: purchased Research Institute for Liver Diseases Co., Ltd. (Shanghai, China)
T1 sequence (P04798 1-512): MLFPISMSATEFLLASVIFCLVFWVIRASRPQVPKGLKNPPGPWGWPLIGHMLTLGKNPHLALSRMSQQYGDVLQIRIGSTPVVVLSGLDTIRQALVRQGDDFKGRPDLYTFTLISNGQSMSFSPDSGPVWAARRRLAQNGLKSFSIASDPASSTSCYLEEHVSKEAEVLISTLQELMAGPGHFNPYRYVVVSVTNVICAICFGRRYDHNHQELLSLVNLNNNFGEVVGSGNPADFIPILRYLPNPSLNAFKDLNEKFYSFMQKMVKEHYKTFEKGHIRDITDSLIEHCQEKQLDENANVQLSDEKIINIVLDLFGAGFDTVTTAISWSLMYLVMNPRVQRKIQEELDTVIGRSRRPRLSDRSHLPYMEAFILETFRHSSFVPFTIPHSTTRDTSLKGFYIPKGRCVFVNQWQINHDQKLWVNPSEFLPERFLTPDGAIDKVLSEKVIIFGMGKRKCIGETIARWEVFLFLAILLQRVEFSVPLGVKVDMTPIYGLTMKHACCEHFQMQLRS
Experimental: (§1) Pre-cooled acetonitrile was used to terminate the reaction, and then centrifugation (4 °C, 12,000 rpm, 20 min) was performed to obtain the sample.
(§2) All samples were analyzed as shown in [17] and are briefly described in Supporting Information. […]
(§3) Supplementary materials and methods
(§4) Reference numbers refer to the main text list
(§5) UHPLC‐Q exactive plus MS Analysis
(§6) All samples were analyzed on a liquid chromatography system including a Vanquish autosampler, Vanquish detector, Vanquish pump (Thremo Fisher Scientific, Santa Clara, CA). Samples were separated on an ACQUITY UPLC HSS T3 column (2.1×100 mm, […], Waters, USA). The injection volume: 5 μL, and the flow rate was 0.3 mL/min.
(§7) Phase A was H2O containing 0.01% formic acid, and phase B was acetonitrile containing 0.01% formic acid. The elution gradient was as follows: 0‐12 mi n, 2‐98% B; 12‐14 min, 2% A; 14‐16 min, 98% A. Other parameters are as follows: column temperature 45 ℃ , flow rate of collision gas and dry gas 9 L/min. Capillary voltage 3.5 kV, temperature 350 ℃ , atomizer pressure 35 psi. Vanquish UHPLC‐Q Exactive plus MS (Thermo Fisher, USA) was collected in both positive modes, operating in full scan mode with 60‐900 m/z. […]

CYP1B1 = target: T2, CYP1B1 (Homo sapiens, UniProt Q16678); experiment: Colchicine metabolism by cDNA-expressed recombinant CYP1B1
T2 construct: purchased Research Institute for Liver Diseases Co., Ltd. (Shanghai, China)
T2 sequence (Q16678 1-543): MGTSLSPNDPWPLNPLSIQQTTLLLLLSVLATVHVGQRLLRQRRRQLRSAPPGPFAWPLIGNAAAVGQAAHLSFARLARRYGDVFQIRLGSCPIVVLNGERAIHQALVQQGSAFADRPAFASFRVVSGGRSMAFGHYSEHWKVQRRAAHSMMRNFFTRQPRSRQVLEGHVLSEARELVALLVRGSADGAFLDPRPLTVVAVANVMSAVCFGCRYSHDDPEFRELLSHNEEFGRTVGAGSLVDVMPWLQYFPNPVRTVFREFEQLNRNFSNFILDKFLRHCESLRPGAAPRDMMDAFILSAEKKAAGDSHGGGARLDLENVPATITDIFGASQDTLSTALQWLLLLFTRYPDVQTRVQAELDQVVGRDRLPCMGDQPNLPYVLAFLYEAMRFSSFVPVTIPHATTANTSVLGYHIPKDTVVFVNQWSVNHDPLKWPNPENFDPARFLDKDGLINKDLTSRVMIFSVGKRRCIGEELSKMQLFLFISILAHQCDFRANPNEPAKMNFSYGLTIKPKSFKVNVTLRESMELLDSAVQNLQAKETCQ
Experimental: as §1, §2, §3, §4, §5, §6, §7

CYP2A6 = target: T3, CYP2A6 (Homo sapiens, UniProt P11509); experiment: Colchicine metabolism by cDNA-expressed recombinant CYP2A6
T3 construct: purchased Research Institute for Liver Diseases Co., Ltd. (Shanghai, China)
Experimental: as §1, §2, §3, §4, §5, §6, §7

CYP2B6 = target: T4, CYP2B6 (Homo sapiens, UniProt P20813); experiment: Colchicine metabolism by cDNA-expressed recombinant CYP2B6
T4 construct: purchased Research Institute for Liver Diseases Co., Ltd. (Shanghai, China)
T4 sequence (P20813 1-491): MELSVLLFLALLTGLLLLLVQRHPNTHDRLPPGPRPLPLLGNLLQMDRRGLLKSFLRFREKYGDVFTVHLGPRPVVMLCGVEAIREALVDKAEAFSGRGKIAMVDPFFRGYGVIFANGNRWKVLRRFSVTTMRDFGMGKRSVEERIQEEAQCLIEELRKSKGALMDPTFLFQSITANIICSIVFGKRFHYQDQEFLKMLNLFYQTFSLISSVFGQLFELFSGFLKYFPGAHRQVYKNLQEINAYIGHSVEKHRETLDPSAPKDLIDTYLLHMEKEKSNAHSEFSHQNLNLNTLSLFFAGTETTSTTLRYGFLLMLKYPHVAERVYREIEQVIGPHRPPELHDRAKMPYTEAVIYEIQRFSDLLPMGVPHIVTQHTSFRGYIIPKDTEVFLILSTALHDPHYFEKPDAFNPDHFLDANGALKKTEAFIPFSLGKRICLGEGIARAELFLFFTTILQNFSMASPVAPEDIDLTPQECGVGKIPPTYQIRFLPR
Experimental: as §1, §2, §3, §4, §5, §6, §7

CYP2C19 = target: T5, CYP2C19 (Homo sapiens, UniProt P33261); experiment: Colchicine metabolism by cDNA-expressed recombinant CYP2C19
T5 construct: purchased Research Institute for Liver Diseases Co., Ltd. (Shanghai, China)
Experimental: as §1, §2, §3, §4, §5, §6, §7

CYP3A4 = target: T6, CYP3A4 (Homo sapiens, UniProt P08684); experiment: Colchicine metabolism by cDNA-expressed recombinant CYP3A4
T6 construct: purchased Research Institute for Liver Diseases Co., Ltd. (Shanghai, China)
Experimental: as §1, §2, §3, §4, §5, §6, §7

CYP4A11 = target: T7, CYP4A11 (Homo sapiens, UniProt Q02928); experiment: Colchicine metabolism by cDNA-expressed recombinant CYP4A11
T7 construct: purchased Research Institute for Liver Diseases Co., Ltd. (Shanghai, China)
T7 sequence (Q02928 5-519): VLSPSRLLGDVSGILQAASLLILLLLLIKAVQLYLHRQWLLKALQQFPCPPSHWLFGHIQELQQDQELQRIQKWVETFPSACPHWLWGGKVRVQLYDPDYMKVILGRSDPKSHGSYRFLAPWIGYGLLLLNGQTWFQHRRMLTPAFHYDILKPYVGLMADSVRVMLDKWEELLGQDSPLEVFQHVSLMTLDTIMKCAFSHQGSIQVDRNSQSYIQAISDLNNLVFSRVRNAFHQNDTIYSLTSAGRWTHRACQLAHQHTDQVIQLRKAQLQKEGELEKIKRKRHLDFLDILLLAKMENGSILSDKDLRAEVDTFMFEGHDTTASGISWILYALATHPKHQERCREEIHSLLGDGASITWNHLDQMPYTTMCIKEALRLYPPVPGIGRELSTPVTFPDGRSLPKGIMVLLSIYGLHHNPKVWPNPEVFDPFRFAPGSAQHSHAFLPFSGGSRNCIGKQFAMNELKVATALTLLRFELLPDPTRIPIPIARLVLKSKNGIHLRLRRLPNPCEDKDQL
Experimental: as §1, §2, §3, §4, §5, §6, §7

T6 sequence (P08684 whole entry): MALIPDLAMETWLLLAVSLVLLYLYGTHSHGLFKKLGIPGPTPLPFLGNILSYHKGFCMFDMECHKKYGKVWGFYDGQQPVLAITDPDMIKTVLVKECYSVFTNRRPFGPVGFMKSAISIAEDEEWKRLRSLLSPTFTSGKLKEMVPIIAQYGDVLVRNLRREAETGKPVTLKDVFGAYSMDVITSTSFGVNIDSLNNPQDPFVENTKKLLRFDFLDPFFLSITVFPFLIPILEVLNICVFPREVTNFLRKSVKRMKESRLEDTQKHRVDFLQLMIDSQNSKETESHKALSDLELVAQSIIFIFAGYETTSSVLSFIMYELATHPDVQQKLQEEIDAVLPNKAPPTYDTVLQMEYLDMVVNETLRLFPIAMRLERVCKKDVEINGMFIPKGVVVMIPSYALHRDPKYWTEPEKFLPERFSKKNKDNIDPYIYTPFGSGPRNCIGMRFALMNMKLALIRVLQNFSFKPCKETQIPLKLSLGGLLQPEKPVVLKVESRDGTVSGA
T5 sequence (P33261 whole entry): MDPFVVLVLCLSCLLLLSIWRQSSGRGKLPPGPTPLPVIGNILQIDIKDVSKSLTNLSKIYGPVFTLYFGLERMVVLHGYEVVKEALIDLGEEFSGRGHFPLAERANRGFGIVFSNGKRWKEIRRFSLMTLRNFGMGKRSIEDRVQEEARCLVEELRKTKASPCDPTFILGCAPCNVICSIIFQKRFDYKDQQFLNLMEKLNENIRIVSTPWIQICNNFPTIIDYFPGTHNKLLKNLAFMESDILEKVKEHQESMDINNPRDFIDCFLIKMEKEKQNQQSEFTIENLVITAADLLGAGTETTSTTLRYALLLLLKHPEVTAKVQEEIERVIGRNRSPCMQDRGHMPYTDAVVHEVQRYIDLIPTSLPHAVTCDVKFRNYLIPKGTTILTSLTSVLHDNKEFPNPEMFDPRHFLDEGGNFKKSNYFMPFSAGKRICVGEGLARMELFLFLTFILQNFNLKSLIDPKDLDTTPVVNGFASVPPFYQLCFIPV
T3 sequence (P11509 whole entry): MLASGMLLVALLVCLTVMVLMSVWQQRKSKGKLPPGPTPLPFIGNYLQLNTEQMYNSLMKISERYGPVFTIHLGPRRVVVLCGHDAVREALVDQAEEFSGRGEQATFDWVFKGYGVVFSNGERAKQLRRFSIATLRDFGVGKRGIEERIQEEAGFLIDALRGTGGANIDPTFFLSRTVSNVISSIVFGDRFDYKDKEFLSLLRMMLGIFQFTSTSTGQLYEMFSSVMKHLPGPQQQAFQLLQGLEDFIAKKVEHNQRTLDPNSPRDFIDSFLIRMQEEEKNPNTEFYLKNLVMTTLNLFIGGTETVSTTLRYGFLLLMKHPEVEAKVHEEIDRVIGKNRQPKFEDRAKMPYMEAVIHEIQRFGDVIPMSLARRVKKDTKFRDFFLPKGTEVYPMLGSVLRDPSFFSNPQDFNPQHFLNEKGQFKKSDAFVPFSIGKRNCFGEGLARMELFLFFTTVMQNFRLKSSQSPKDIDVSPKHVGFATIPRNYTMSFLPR

Structure (SMILES)	peak area of the metabolite after incubation with CYP1A1 as a percentage of the total peak areas from all the CYPs (CYP1A1) [%]	peak area of the metabolite after incubation with CYP1B1 as a percentage of the total peak areas from all the CYPs (CYP1B1) [%]	peak area of the metabolite after incubation with CYP2A6 as a percentage of the total peak areas from all the CYPs (CYP2A6) [%]	peak area of the metabolite after incubation with CYP2B6 as a percentage of the total peak areas from all the CYPs (CYP2B6) [%]	peak area of the metabolite after incubation with CYP2C19 as a percentage of the total peak areas from all the CYPs (CYP2C19) [%]	peak area of the metabolite after incubation with CYP3A4 as a percentage of the total peak areas from all the CYPs (CYP3A4) [%]	peak area of the metabolite after incubation with CYP4A11 as a percentage of the total peak areas from all the CYPs (CYP4A11) [%]
COc1cc2c(c(OC)c1O)-c1ccc(OC)c(=O)cc1[C@@H](NC(C)=O)CC2 [M1]	3.91 ± 3.16	4.56 ± 1.73	5.39 ± 0.90	6.90 ± 0.52	8.35 ± 0.65	14.93 ± 1.41	6.48 ± 0.33
COc1cc2c(c(OC)c1OC)-c1ccc(O)c(=O)cc1[C@@H](NC(C)=O)CC2 [M4]	6.99 ± 0.30	7.00 ± 0.10	6.66 ± 2.12	7.77 ± 0.57	6.69 ± 1.91	12.18 ± 0.70	6.78 ± 0.33
COc1cc2c(c(O)c1OC)-c1ccc(OC)c(=O)cc1[C@@H](NC(C)=O)CC2 [M2]	4.51 ± 2.24	2.53 ± 0.65	2.64 ± 0.16	4.42 ± 0.21	6.27 ± 0.30	47.73 ± 5.45	3.57 ± 0.39
COc1cc2c(c(OC)c1OC)-c1ccc(OC)c(=O)cc1C=CC2 [M6]	8.78 ± 1.10	7.14 ± 0.77	8.25 ± 0.69	9.86 ± 0.58	6.74 ± 0.36	6.55 ± 0.65	6.01 ± 0.22
COc1c(O)cc2c(c1O)-c1ccc(OC)c(=O)cc1[C@@H](NC(C)=O)CC2 [M8]	9.32 ± 5.12	7.48 ± 2.17	4.23 ± 0.62	10.13 ± 3.38	7.66 ± 2.52	12.27 ± 1.54	7.65 ± 1.95
COc1c(O)cc2c(c1OC)-c1ccc(OC)c(=O)cc1[C@@H](NC(C)=O)C=C2 [M5]	6.87 ± 0.00	7.27 ± 2.20	7.26 ± 8.64	7.86 ± 0.00	8.63 ± 1.05	7.72 ± 15.62	8.01 ± 0.00
